Reference: patent US20110195911A1, “SYNTHETIC ANALOGS OF THE JUXTAMEMBRANE DOMAIN OF IGF1R AND USES THEREOF” (THE UNITED STATES OF AMERICA,AS REPRESENTED BY THE …, priority 2008, published 2011)
Where a SMILES comes first, the peptide text is derived from it. The star is where a group is joined. Palmitoyl = CCCCCCCCCCCCCCCC(=O)*

Test system: MCF-7 breast cancer cells
Assay: MTT cell toxicity assay in MCF-7 breast cancer cells
Assay type: cell-based
Settings: for GI50 / TGI / growth inhibition / potency in MCF-7 cells (in words): MCF-7 cells, MTT; for GI50 / TGI: final 0.5% FBS, two days with compound; for TGI: concentration of total growth inhibition (cytostatic); for growth inhibition / potency in MCF-7 cells (in words): comparison with related peptides; for improvement of potency: N-terminal truncation, relative to peptide 12/3
Procedure: Cell Toxicity Assays: MCF-7 (breast cancer), T47D (breast cancer), Colo 205 (colon cancer), JM-1 (rat hepatoma), Sk Me1-2 (melanoma), PLC (human hepatoma), and HepG2 (human hepatoma) cells were obtained from American Type Cell Culture Collection. MCF-7 cells were grown in RPMI medium supplemented with 10% Fetal Bovine Serum. The rest of the cell lines were grown in DMEM medium supplemented with 10% Fetal Bovine Serum.
MTT 43-(4,5-Dimethylthiazol-2-yl)-2,5-diphenyltetrazolium) cell assay was performed using MCF-7 breast cancer cells. For the assay, cells were seeded into 96 well plates in medium containing 1% Fetal Bovine Serum and 100 μL of a cell suspension containing 5000 cells per well. Wells containing medium-only, and wells containing untreated cells, served as controls.
Seeded cells were allowed to attach and grow in the wells for 24 hours. A 5 mM stock solution of each peptide was made by dissolving approximately 1 mg of peptide in appropriate amount of DMSO. 2 mL dilutions were used to make 0.2 μM, 1.0 μM, 5.0 μM, and 10.0 μM concentration solutions of the compounds in serum-free medium. 100 μl, of the resulting 2× solutions were added to the corresponding wells to provide a final FBS concentration of 0.5% and 0.1 μM, 0.5 μM, 2.5 μM, and 5.0 μM dilutions of inhibitors. The cells were incubated with test compounds for two days. The control wells were given 100 μL of medium to ensure maximum similarity to the test wells so that all of the wells had 200 μL of medium during the growth period. An individual plate was made for Time Zero, to which the dye was added at the time of addition of compounds.
An alternative potency assay was used to test compounds in MCF-7 (breast cancer), T47D (breast cancer), Colo 205 (colon cancer), JM-1 (rat hepatoma), Sk MeI-2 (melanoma), PLC (human hepatoma), and HepG2 (human hepatoma) cells. Cells were suspended at a concentration of approximately 5000 cells per 100 μL of suspension in a 5% FBS RPMI medium. The cells were seeded into 96-count wells and incubated over night. After one day's incubation, the 5% FBS medium was aspirated and replaced with 100 μL of no serum RPMI medium containing 1 mg Bovine Serum Albumin (BSA) per 1 mL RPMI. Various concentrations of the test compounds were prepared by dilution in no-serum medium containing 1 mg BSA/mL. 75 μL of the test compound solutions were added to the wells, and the cells were allowed to incubate for 15-20 minutes, after which time 25 μL of human recombinant IGF-1 (Peprotech) solution was added to the wells to attain final concentrations of 10 ng IGF-1/mL medium. The control wells were given 175 μL of no-serum medium in addition to 25 μL of IGF-1 solution. An individual plate was made for time zero, in which the medium was also aspirated and replaced with 175 μL of no-serum medium and 25 μL of IGF-1. 15 μL of MTT dye was added and let incubate for 4 hours, after which time a stop stop solubilization solution was added. The stop solution lysed the cells and released the dye reduced by the remaining living cells. Absorbance of the wells at 544 nm was determined by a FLUOstar/POLARstar Galaxy (BMG Lab Technologies GmbH) microplate reader. The activity was calculated from the data using the formula: 100×[(T−T0)/(C−T0)] for T>T0 and 100×[(T−T0)/T0] for T<T0, wherein T0 corresponds to cell density at the time of drug addition, “T” is the optical density of the test well after a 48-h period of exposure to test drug, and “C” is the control optical density. The GI50 measures the growth inhibitory power of the test agent, and is defined as the concentration of test drug where 100×(T−T0)/(C−T0)=50. The TGI is the concentration of test drug where 100×(T−T0)/(C−T0)=0. Thus, the TGI signifies a cytostatic effect.

SMILES | GI50 [nM] | TGI [µM] | growth inhibition / potency in MCF-7 cells (in words) | improvement of potency (MCF-7) | increase in toxicity (MCF-7, relative to peptide 3) [fold]
CCCCCCCCCCCCCCCC(=O)N[C@H](C(=O)N[C@@H](Cc1c[nH]cn1)C(=O)N[C@@H](CCCNC(=N)N)C(=O)N[C@@H](CCCCN)C(=O)N[C@@H](CCCNC(=N)N)C(=O)N[C@@H](CC(N)=O)C(=O)N[C@@H](CC(N)=O)C(=O)N[C@@H](CO)C(=O)N[C@@H](CCCNC(=N)N)C(=O)N[C@@H](CC(C)C)C(=O)NCC(=O)N[C@@H](CC(N)=O)C(=O)NCC(=O)N[C@H](C(=O)N[C@@H](CC(C)C)C(=O)N[C@@H](Cc1ccc(O)cc1)C(=O)N[C@@H](C)C(=O)N[C@@H](CO)C(=O)N[C@H](C(N)=O)C(C)C)C(C)C)C(C)C [Peptide 6, Pal-VHRKRNNSRLGNGVLYASV-NH2] (Palmitoyl-VHRKRNNSRLGNGVLYASV-NH2) | 250 ± 30 | 1.05 ± 0.1 | – | – | –
CCCCCCCCCCCCCCCC(=O)N[C@@H](Cc1c[nH]cn1)C(=O)N[C@@H](CCCNC(=N)N)C(=O)N[C@@H](CCCCN)C(=O)N[C@@H](CCCNC(=N)N)C(=O)N[C@@H](CC(N)=O)C(=O)N[C@@H](CC(N)=O)C(=O)N[C@@H](CO)C(=O)N[C@@H](CCCNC(=N)N)C(=O)N[C@@H](CC(C)C)C(=O)NCC(=O)N[C@@H](CC(N)=O)C(=O)NCC(=O)N[C@H](C(=O)N[C@@H](CC(C)C)C(=O)N[C@@H](Cc1ccc(O)cc1)C(=O)N[C@@H](C)C(=O)N[C@@H](CO)C(N)=O)C(C)C [Peptide 7, Pal-HRKRNNSRLGNGVLYAS-NH2] (Palmitoyl-HRKRNNSRLGNGVLYAS-NH2) | 1450 ± 100 | 4.1 ± 0.3 | – | – | –
CCCCCCCCCCCCCCCC(=O)N[C@@H](Cc1c[nH]cn1)C(=O)N[C@@H](CCCNC(=N)N)C(=O)N[C@@H](CCCCN)C(=O)N[C@@H](CCCNC(=N)N)C(=O)N[C@@H](CC(N)=O)C(=O)N[C@@H](CC(N)=O)C(=O)N[C@@H](CO)C(=O)N[C@@H](CCCNC(=N)N)C(=O)N[C@@H](CC(C)C)C(=O)NCC(=O)N[C@@H](CC(N)=O)C(=O)NCC(=O)N[C@H](C(=O)N[C@@H](CC(C)C)C(=O)N[C@@H](Cc1ccc(O)cc1)C(=O)N[C@@H](C)C(N)=O)C(C)C [Peptide 8, Pal-HRKRNNSRLGNGVLYA-NH2] (Palmitoyl-HRKRNNSRLGNGVLYA-NH2) | 1400 ± 100 | >5 | – | – | –
CCCCCCCCCCCCCCCC(=O)N[C@@H](Cc1c[nH]cn1)C(=O)N[C@@H](CCCNC(=N)N)C(=O)N[C@@H](CCCCN)C(=O)N[C@@H](CCCNC(=N)N)C(=O)N[C@@H](CC(N)=O)C(=O)N[C@@H](CC(N)=O)C(=O)N[C@@H](CO)C(=O)N[C@@H](CCCNC(=N)N)C(=O)N[C@@H](CC(C)C)C(=O)NCC(=O)N[C@@H](CC(N)=O)C(=O)NCC(=O)N[C@H](C(=O)N[C@@H](CC(C)C)C(N)=O)C(C)C [Peptide 10, Pal-HRKRNNSRLGNGVL-NH2] (Palmitoyl-HRKRNNSRLGNGVL-NH2) | 1800 ± 100 | >5 | – | – | –
CCCCCCCCCCCCCCCC(=O)N[C@@H](Cc1c[nH]cn1)C(=O)N[C@@H](CCCNC(=N)N)C(=O)N[C@@H](CCCCN)C(=O)N[C@@H](CCCNC(=N)N)C(=O)N[C@@H](CC(N)=O)C(=O)N[C@@H](CC(N)=O)C(=O)N[C@@H](CO)C(=O)N[C@@H](CCCNC(=N)N)C(=O)N[C@@H](CC(C)C)C(=O)NCC(=O)N[C@@H](CC(N)=O)C(=O)NCC(=O)N[C@H](C(N)=O)C(C)C [Peptide 11, Pal-HRKRNNSRLGNGV-NH2] (Palmitoyl-HRKRNNSRLGNGV-NH2) | 2500 ± 100 | >5 | – | – | –
CCCCCCCCCCCCCCCC(=O)N[C@@H](CCCNC(=N)N)C(=O)N[C@@H](CCCCN)C(=O)N[C@@H](CCCNC(=N)N)C(=O)N[C@@H](CC(N)=O)C(=O)N[C@@H](CC(N)=O)C(=O)N[C@@H](CO)C(=O)N[C@@H](CCCNC(=N)N)C(=O)N[C@@H](CC(C)C)C(=O)NCC(=O)N[C@@H](CC(N)=O)C(=O)NCC(=O)N[C@H](C(=O)N[C@@H](CC(C)C)C(=O)N[C@@H](Cc1ccc(O)cc1)C(=O)N[C@@H](C)C(=O)N[C@@H](CO)C(=O)N[C@H](C(=O)N[C@@H](CC(N)=O)C(N)=O)C(C)C)C(C)C [Peptide 12, Pal-RKRNNSRLGNGVLYASVN-NH2] (Palmitoyl-RKRNNSRLGNGVLYASVN-NH2) | 1200 ± 100 | 2.7 ± 0.3 | decreased activity slightly | – | –
CCCCCCCCCCCCCCCC(=O)N[C@@H](CCCCN)C(=O)N[C@@H](CCCNC(=N)N)C(=O)N[C@@H](CC(N)=O)C(=O)N[C@@H](CC(N)=O)C(=O)N[C@@H](CO)C(=O)N[C@@H](CCCNC(=N)N)C(=O)N[C@@H](CC(C)C)C(=O)NCC(=O)N[C@@H](CC(N)=O)C(=O)NCC(=O)N[C@H](C(=O)N[C@@H](CC(C)C)C(=O)N[C@@H](Cc1ccc(O)cc1)C(=O)N[C@@H](C)C(=O)N[C@@H](CO)C(=O)N[C@H](C(=O)N[C@@H](CC(N)=O)C(N)=O)C(C)C)C(C)C [Peptide 13, Pal-KRNNSRLGNGVLYASVN-NH2] (Palmitoyl-KRNNSRLGNGVLYASVN-NH2) | 80 ± 7 | 0.5 ± 0.08 | – | more than ten-fold | 12.5
CCCCCCCCCCCCCCCC(=O)N[C@@H](CCCNC(=N)N)C(=O)N[C@@H](CC(N)=O)C(=O)N[C@@H](CC(N)=O)C(=O)N[C@@H](CO)C(=O)N[C@@H](CCCNC(=N)N)C(=O)N[C@@H](CC(C)C)C(=O)NCC(=O)N[C@@H](CC(N)=O)C(=O)NCC(=O)N[C@H](C(=O)N[C@@H](CC(C)C)C(=O)N[C@@H](Cc1ccc(O)cc1)C(=O)N[C@@H](C)C(=O)N[C@@H](CO)C(=O)N[C@H](C(=O)N[C@@H](CC(N)=O)C(N)=O)C(C)C)C(C)C [Peptide 14, Pal-RNNSRLGNGVLYASVN-NH2] (Palmitoyl-RNNSRLGNGVLYASVN-NH2) | 100 ± 4 | 0.4 ± 0.02 | – | more than ten-fold | –
CCCCCCCCCCCCCCCC(=O)N[C@@H](CC(N)=O)C(=O)N[C@@H](CC(N)=O)C(=O)N[C@@H](CO)C(=O)N[C@@H](CCCNC(=N)N)C(=O)N[C@@H](CC(C)C)C(=O)NCC(=O)N[C@@H](CC(N)=O)C(=O)NCC(=O)N[C@H](C(=O)N[C@@H](CC(C)C)C(=O)N[C@@H](Cc1ccc(O)cc1)C(N)=O)C(C)C [Peptide 15, Pal-NNSRLGNGVLY-NH2] (Palmitoyl-NNSRLGNGVLY-NH2) | 100 ± 10 | 1.5 ± 0.05 | gradual reduction in potency | – | –
CCCCCCCCCCCCCCCC(=O)N[C@@H](CCCNC(=N)N)C(=O)N[C@@H](CC(N)=O)C(=O)N[C@@H](CC(N)=O)C(=O)N[C@@H](CO)C(=O)N[C@@H](CCCNC(=N)N)C(=O)N[C@@H](CC(C)C)C(=O)NCC(=O)N[C@@H](CC(N)=O)C(=O)NCC(=O)N[C@H](C(=O)N[C@@H](CC(C)C)C(=O)N[C@@H](Cc1ccc(O)cc1)C(N)=O)C(C)C [Peptide 16, Pal-RNNSRLGNGVLY-NH2] (Palmitoyl-RNNSRLGNGVLY-NH2) | 70 ± 5 | 0.5 ± 0.02 | most potent derivative | – | –
CCCCCCCCCCCCCCCC(=O)N[C@@H](CC(N)=O)C(=O)N[C@@H](CO)C(=O)N[C@@H](CCCNC(=N)N)C(=O)N[C@@H](CC(C)C)C(=O)NCC(=O)N[C@@H](CC(N)=O)C(=O)NCC(=O)N[C@H](C(=O)N[C@@H](CC(C)C)C(=O)N[C@@H](Cc1ccc(O)cc1)C(N)=O)C(C)C [Peptide 17, Pal-NSRLGNGVLY-NH2] (Palmitoyl-NSRLGNGVLY-NH2) | 200 ± 10 | 1.5 ± 0.1 | gradual reduction in potency | – | –
